Measurements: patent US20080009418A1, “Selective Inhibitors” (Alchemia LTD., priority 2004, published 2008)

Assays:
[1] = target: T1, Human δ-opioid (DOP) (Homo sapiens, UniProt P41143); assay: Radioligand binding, human δ-opioid (DOP) membranes, FlashPlate, [3H]-Bremazocine; settings: compound at 10 μM; [3H]-Bremazocine
T1 construct: purchased Perkin Elmer Biosignal
Procedure, shortened: (§1)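 Cloned human receptor membranes were coated onto FlashPlate wells and incubated with radioligand and compound (added from a 0.5 mM DMSO daughter plate) for 1 hour at room temperature in the dark. Scintillation counting gave percent inhibition, with DMSO defining total and reference ligand defining non-specific binding.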

[2] = target: T2, Human κ-Opioid (KOP) (Homo sapiens, UniProt P41145); assay: Radioligand binding, human κ-opioid (KOP) membranes, filtration, [3H]-Diprenorphine; settings: compound at 10 μM; [3H]-Diprenorphine
T2 construct: purchased Perkin Elmer Biosignal
T2 sequence (P41145 whole entry): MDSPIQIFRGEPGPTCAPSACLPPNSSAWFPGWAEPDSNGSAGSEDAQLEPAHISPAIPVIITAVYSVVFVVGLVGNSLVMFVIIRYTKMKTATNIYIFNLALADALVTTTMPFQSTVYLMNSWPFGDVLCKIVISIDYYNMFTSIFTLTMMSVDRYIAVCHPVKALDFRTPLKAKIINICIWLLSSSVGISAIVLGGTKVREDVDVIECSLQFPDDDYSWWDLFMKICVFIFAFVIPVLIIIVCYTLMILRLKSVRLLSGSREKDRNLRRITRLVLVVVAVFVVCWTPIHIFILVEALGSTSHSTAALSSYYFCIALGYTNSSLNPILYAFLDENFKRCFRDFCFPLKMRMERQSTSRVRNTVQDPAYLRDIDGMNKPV
Procedure, shortened: (§2)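 Filtration binding on cloned human receptor membranes (1 Unit/well), [125I]-Substance P for NK1 and [3H]-Diprenorphine for KOP, 1 h at room temperature. Filters PEI-presoaked, washed with cold 50 mM Tris-HCl pH 7.4, counted by scintillation; percent inhibition calculated, reference ligand defining non-specific binding.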

[3] = target: T3, Human Melanocortin (MC3) (Homo sapiens, UniProt P41968); assay: Radioligand binding, human melanocortin MC3 membranes, FlashPlate, [125I]-NDP-αMSH; settings: compound at 10 μM; [125I]-NDP-αMSH
T3 construct: purchased Perkin Elmer Biosignal
T3 sequence (P41968 whole entry): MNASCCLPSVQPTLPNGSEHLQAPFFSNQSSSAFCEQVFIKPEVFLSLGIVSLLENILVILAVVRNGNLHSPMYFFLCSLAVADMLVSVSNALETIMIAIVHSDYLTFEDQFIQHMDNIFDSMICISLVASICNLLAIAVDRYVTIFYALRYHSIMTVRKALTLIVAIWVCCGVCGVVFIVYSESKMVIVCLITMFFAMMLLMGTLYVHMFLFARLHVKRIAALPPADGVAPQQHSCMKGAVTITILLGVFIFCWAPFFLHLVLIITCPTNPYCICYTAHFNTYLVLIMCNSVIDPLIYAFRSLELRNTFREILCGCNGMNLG
Procedure, shortened: as §1

[4] = target: T4, Human Melanocortin (MC4) (Homo sapiens, UniProt P32245); assay: Radioligand binding, human melanocortin MC4 membranes, FlashPlate, [125I]-NDP-αMSH; settings: compound at 10 μM; [125I]-NDP-αMSH
T4 construct: purchased Perkin Elmer Biosignal
T4 sequence (P32245 whole entry): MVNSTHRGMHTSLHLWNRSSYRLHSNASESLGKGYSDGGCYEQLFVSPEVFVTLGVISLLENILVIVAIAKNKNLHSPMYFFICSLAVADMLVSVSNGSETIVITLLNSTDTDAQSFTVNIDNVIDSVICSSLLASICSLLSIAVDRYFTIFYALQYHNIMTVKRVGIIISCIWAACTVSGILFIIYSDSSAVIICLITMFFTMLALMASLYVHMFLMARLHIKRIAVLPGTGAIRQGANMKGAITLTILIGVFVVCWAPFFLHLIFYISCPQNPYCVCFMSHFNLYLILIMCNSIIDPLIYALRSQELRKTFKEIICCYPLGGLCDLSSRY
Procedure, shortened: as §1

[5] = target: T5, Human melanocortin (MC5) (Homo sapiens, UniProt P33032); assay: Radioligand binding, human melanocortin MC5 membranes, FlashPlate, [125I]-NDP-αMSH; settings: compound at 10 μM; [125I]-NDP-αMSH
T5 construct: purchased Perkin Elmer Biosignal
T5 sequence (P33032 whole entry): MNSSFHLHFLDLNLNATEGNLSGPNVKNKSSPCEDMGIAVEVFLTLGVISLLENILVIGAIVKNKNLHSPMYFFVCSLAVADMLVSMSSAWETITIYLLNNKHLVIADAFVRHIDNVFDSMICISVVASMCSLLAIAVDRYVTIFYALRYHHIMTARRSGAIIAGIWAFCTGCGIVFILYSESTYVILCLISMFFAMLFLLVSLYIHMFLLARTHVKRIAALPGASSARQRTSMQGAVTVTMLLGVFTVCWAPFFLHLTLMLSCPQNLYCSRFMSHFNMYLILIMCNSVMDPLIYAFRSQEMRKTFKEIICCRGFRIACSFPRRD
Procedure, shortened: as §1

[6] = target: T6, Human melanin-concentrating hormone (MCH1) (Homo sapiens, UniProt Q99705); assay: Radioligand binding, human melanin-concentrating hormone MCH1 membranes, FlashPlate, [125I]-S36057; settings: compound at 10 μM; [125I]-S36057
T6 construct: purchased Perkin Elmer Biosignal
T6 sequence (Q99705 whole entry): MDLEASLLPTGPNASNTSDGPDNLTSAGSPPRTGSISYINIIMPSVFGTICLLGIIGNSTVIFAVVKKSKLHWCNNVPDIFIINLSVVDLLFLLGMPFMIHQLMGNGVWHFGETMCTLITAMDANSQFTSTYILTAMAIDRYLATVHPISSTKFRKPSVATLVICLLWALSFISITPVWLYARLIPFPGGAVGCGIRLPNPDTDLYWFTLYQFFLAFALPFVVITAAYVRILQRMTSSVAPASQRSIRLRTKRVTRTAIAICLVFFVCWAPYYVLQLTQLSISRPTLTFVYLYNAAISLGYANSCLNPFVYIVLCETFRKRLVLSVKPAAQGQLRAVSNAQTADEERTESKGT
Procedure, shortened: as §1

[7] = target: T7, Human μ-opioid (MOP) (Homo sapiens, UniProt P35372); assay: Radioligand binding, human μ-opioid (MOP) membranes, FlashPlate, [3H]-Naloxone; settings: compound at 10 μM; [3H]-Naloxone
T7 construct: purchased Perkin Elmer Biosignal
T7 sequence (P35372 whole entry): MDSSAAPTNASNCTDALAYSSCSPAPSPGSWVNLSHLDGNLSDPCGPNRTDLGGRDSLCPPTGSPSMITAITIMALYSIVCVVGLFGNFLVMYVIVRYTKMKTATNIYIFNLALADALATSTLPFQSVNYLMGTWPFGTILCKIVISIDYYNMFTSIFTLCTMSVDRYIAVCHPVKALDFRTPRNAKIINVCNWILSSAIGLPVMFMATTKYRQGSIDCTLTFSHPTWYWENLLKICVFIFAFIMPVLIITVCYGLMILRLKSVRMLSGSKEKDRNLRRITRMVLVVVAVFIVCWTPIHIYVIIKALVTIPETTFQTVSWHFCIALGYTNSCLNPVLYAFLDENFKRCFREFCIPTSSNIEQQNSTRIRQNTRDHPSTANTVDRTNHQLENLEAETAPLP
Procedure, shortened: as §1

[8] = target: T8, Human neurokinin (NK1) (Homo sapiens, UniProt P25103); assay: Radioligand binding, human neurokinin NK1 membranes, filtration, [125I]-Substance P; settings: compound at 10 μM; [125I]-Substance P
T8 construct: purchased Perkin Elmer Biosignal
T8 sequence (P25103 whole entry): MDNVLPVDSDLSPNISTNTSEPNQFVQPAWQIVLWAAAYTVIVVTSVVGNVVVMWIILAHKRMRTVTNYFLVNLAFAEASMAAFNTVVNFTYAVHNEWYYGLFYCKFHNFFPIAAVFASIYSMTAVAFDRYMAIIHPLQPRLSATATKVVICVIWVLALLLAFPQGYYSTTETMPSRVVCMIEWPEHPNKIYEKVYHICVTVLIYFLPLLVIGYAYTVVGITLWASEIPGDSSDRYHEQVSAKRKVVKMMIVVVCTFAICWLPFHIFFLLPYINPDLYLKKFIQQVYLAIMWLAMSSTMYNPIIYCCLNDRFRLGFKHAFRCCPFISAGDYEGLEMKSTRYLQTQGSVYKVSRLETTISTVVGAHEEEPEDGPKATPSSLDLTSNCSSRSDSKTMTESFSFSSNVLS
Procedure, shortened: as §2

[9] = target: T9, Human neuropeptide Y (NPY-Y1) (Homo sapiens, UniProt P25929); assay: Radioligand binding, human neuropeptide Y NPY-Y1 membranes, FlashPlate, [125I]-PYY; settings: compound at 10 μM; [125I]-PYY
T9 construct: purchased Perkin Elmer Biosignal
T9 sequence (P25929 1-384): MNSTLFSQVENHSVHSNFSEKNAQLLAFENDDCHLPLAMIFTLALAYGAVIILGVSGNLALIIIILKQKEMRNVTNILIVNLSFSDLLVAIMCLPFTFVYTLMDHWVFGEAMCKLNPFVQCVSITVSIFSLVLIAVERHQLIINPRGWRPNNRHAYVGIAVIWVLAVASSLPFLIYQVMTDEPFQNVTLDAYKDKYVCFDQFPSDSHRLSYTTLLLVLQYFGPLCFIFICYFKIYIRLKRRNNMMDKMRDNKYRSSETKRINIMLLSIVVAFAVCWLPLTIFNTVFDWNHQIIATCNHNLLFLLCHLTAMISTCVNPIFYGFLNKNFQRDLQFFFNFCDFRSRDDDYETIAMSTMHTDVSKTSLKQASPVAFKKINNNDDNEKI
Procedure, shortened: as §1

[10] = target: T10, Human opioid (ORL1) (Homo sapiens, UniProt P41146); assay: Radioligand binding, human opioid ORL1 membranes, FlashPlate, [125I]-Nociceptin; settings: compound at 10 μM; [125I]-Nociceptin
T10 construct: purchased Perkin Elmer Biosignal
T10 sequence (P41146 whole entry): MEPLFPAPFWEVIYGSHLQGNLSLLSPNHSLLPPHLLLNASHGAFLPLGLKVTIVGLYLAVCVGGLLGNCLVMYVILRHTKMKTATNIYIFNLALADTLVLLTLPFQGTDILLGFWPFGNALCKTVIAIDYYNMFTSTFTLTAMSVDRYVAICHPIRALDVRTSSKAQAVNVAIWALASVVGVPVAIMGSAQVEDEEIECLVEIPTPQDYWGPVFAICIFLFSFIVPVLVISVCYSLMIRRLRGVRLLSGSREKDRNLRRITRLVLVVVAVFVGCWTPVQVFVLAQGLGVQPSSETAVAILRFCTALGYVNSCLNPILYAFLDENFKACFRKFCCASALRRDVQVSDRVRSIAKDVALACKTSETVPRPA
Procedure, shortened: as §1

[11] = target: T11, Mouse urotensin (mUR2) (Mus musculus, UniProt Q8VIH9); assay: Radioligand binding, mouse urotensin mUR2 membranes, FlashPlate, [125I]-Urotensin II; settings: compound at 10 μM; [125I]-Urotensin II
T11 construct: purchased Perkin Elmer Biosignal
T11 sequence (Q8VIH9 1-385): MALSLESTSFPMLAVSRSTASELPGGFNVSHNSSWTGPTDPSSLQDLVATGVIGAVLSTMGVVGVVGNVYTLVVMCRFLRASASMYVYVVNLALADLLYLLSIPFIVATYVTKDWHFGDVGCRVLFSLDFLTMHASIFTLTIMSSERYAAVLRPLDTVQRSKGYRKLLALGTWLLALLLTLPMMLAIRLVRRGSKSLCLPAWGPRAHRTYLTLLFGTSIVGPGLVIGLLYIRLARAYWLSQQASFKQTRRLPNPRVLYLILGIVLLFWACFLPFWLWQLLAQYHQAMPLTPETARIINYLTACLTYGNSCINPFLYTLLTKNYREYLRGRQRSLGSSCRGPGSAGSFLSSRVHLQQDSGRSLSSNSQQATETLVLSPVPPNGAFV
Procedure, shortened: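 Cloned mouse urotensin (mUR2) receptor membranes from Perkin Elmer Biosignal were immobilized in FlashPlate microplates using a proprietary coating. Each well got 19.5 μl buffer, then 0.5 μl of DMSO, reference ligand, or compound. Adding 5 μl of [125I]-Urotensin II, diluted to 5× final concentration in binding buffer, started binding. Plates were sealed with TopSeal-A and incubated 1 hour at room temperature in the dark. Wells were counted for 30 seconds each on a TopCount after a 60-second delay, and percentage inhibition was calculated.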

T1 sequence (P41143 whole entry): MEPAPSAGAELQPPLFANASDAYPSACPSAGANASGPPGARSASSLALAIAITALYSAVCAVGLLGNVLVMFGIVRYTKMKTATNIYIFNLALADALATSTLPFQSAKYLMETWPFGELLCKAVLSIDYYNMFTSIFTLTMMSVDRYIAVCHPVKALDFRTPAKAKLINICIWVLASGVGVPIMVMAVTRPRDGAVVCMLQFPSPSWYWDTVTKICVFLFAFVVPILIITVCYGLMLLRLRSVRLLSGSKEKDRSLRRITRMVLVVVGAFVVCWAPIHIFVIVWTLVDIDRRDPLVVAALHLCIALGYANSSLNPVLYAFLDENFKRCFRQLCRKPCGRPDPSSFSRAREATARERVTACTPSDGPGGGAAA

Structure (SMILES) | A1 radioligand binding, percentage inhibition [1] | A2 radioligand binding, percentage inhibition [2] | A3 radioligand binding, percentage inhibition [3] | A4 radioligand binding, percentage inhibition [4] | A5 radioligand binding, percentage inhibition [5] | A6 radioligand binding, percentage inhibition [6] | A7 radioligand binding, percentage inhibition [7] | A8 radioligand binding, percentage inhibition [8] | A9 radioligand binding, percentage inhibition [9] | A10 radioligand binding, percentage inhibition [10] | A11 radioligand binding, percentage inhibition [11]
CO[C@H]1[C@H](O)[C@@H](COCc2cccc(O)c2)OC(OCc2ccc(Cl)cc2)[C@@H]1NC(=O)CCCNC(=N)N (stereo partly shown) [compound 157] | − (“−” indicates less than 50% inhibition at 10 μM) | − (“−” indicates less than 50% inhibition at 10 μM) | − (“−” indicates less than 50% inhibition at 10 μM) | − (“−” indicates less than 50% inhibition at 10 μM) | + (“+” indicates greater than 50% inhibition at 10 μM) | + (“+” indicates greater than 50% inhibition at 10 μM) | − (“−” indicates less than 50% inhibition at 10 μM) | + (“+” indicates greater than 50% inhibition at 10 μM) | − (“−” indicates less than 50% inhibition at 10 μM) | − (“−” indicates less than 50% inhibition at 10 μM) | − (“−” indicates less than 50% inhibition at 10 μM)
CO[C@H]1[C@H](O)[C@@H](COCc2cccc(O)c2)OC(OCCc2ccccc2)[C@@H]1NC(=O)CNC(=N)N (stereo partly shown) [compound 158] | − (“−” indicates less than 50% inhibition at 10 μM) | − (“−” indicates less than 50% inhibition at 10 μM) | − (“−” indicates less than 50% inhibition at 10 μM) | − (“−” indicates less than 50% inhibition at 10 μM) | − (“−” indicates less than 50% inhibition at 10 μM) | − (“−” indicates less than 50% inhibition at 10 μM) | − (“−” indicates less than 50% inhibition at 10 μM) | + (“+” indicates greater than 50% inhibition at 10 μM) | − (“−” indicates less than 50% inhibition at 10 μM) | − (“−” indicates less than 50% inhibition at 10 μM) | − (“−” indicates less than 50% inhibition at 10 μM)
CO[C@H]1[C@H](O)[C@@H](COCc2cccc(O)c2)OC(OCCc2ccccc2)[C@@H]1NC(=O)CCNC(=N)N (stereo partly shown) [compound 159] | − (“−” indicates less than 50% inhibition at 10 μM) | − (“−” indicates less than 50% inhibition at 10 μM) | − (“−” indicates less than 50% inhibition at 10 μM) | − (“−” indicates less than 50% inhibition at 10 μM) | − (“−” indicates less than 50% inhibition at 10 μM) | − (“−” indicates less than 50% inhibition at 10 μM) | − (“−” indicates less than 50% inhibition at 10 μM) | + (“+” indicates greater than 50% inhibition at 10 μM) | − (“−” indicates less than 50% inhibition at 10 μM) | − (“−” indicates less than 50% inhibition at 10 μM) | − (“−” indicates less than 50% inhibition at 10 μM)
CO[C@H]1[C@H](O)[C@@H](COCc2cccc(O)c2)OC(OCCc2ccccc2)[C@@H]1NC(=O)CCCN (stereo partly shown) [compound 160] | − (“−” indicates less than 50% inhibition at 10 μM) | − (“−” indicates less than 50% inhibition at 10 μM) | − (“−” indicates less than 50% inhibition at 10 μM) | − (“−” indicates less than 50% inhibition at 10 μM) | − (“−” indicates less than 50% inhibition at 10 μM) | − (“−” indicates less than 50% inhibition at 10 μM) | − (“−” indicates less than 50% inhibition at 10 μM) | + (“+” indicates greater than 50% inhibition at 10 μM) | − (“−” indicates less than 50% inhibition at 10 μM) | − (“−” indicates less than 50% inhibition at 10 μM) | − (“−” indicates less than 50% inhibition at 10 μM)
CO[C@H]1[C@H](O)[C@@H](COCc2cccc(O)c2)OC(OCCc2ccccc2)[C@@H]1NC(=O)CCCNC(=N)N (stereo partly shown) [compound 161] | − (“−” indicates less than 50% inhibition at 10 μM) | − (“−” indicates less than 50% inhibition at 10 μM) | − (“−” indicates less than 50% inhibition at 10 μM) | − (“−” indicates less than 50% inhibition at 10 μM) | − (“−” indicates less than 50% inhibition at 10 μM) | − (“−” indicates less than 50% inhibition at 10 μM) | − (“−” indicates less than 50% inhibition at 10 μM) | + (“+” indicates greater than 50% inhibition at 10 μM) | − (“−” indicates less than 50% inhibition at 10 μM) | − (“−” indicates less than 50% inhibition at 10 μM) | − (“−” indicates less than 50% inhibition at 10 μM)
